Results published in ChEMBL document CHEMBL1122943, “Cardiotonic agents. 2. Synthesis and structure-activity relationships of 4,5-dihydro-6-[4-(1H-imidazol-1-yl)phenyl]-3(2H)-pyridazinones: a new class of positive inotropic agents” (1985).

Experiments:
Canis familiaris [1] = experiment: Evaluated for 50% increase of myocardial contractility in anesthetized dog, administered intravenously; assay type: functional, Canis lupus familiaris, Myocardium
Canis familiaris [2] = experiment: Compound was evaluated for 40-60% increase of myocardial contractility in a conscious dog model orally administered.; assay type: functional, Canis lupus familiaris, Myocardium
Canis familiaris [3] = experiment: Compound was evaluated for 40-60% increase of myocardial contractility in a conscious dog model orally administered; assay type: functional, Canis lupus familiaris, Myocardium
Canis familiaris [4] = experiment: Compound was evaluated for 50% increase of myocardial contractility in a conscious dog model orally administered.; assay type: functional, Canis lupus familiaris, Myocardium
Canis familiaris [5] = experiment: Compound was evaluated for 40-60% increase of myocardial contractility in a conscious dog model perorally administered; assay type: functional, Canis lupus familiaris, Myocardium
Canis familiaris [6] = experiment: Percent increase in heart rate was evaluated by effect of Cardiotonic agents on myocardial contractility in conscious dog administered orally at dose of 0.31 mg/kg; assay type: functional, Canis lupus familiaris; conditions: route oral
Canis familiaris [7] = experiment: Percent increase in contractility was evaluated by effect of Cardiotonic agents on myocardial contractility in conscious dog administered orally at dose of 0.31 mg/kg; assay type: functional, Canis lupus familiaris, Myocardium; conditions: route oral
Canis familiaris [8] = experiment: Percent increase in heart rate was evaluated by effect of Cardiotonic agents on myocardial contractility in conscious dog administered orally at dose of 0.1 mg/kg; Value is not statistically significant.; assay type: functional, Canis lupus familiaris; conditions: route oral
Canis familiaris [9] = experiment: Percent increase in contractility was evaluated by effect of Cardiotonic agents on myocardial contractility in conscious dog administered orally at dose of 0.1 mg/kg; assay type: functional, Canis lupus familiaris, Myocardium; conditions: route oral
Canis familiaris [10] = experiment: Cardiovascular activity (contractility) (0.31 mg/kg) in dog before beta-blockade.; assay type: functional, Canis lupus familiaris
Canis familiaris [11] = experiment: Percent increase in heart rate was evaluated by effect of Cardiotonic agents on myocardial contractility in conscious dog administered orally at dose of 1.0 mg/kg; assay type: functional, Canis lupus familiaris; conditions: route oral
Canis familiaris [12] = experiment: Cardiovascular activity(heart rate) (0.31 mg/kg) in dog before beta-blockade; assay type: functional, Canis lupus familiaris
Canis familiaris [13] = experiment: Percent increase in contractility was evaluated by effect of Cardiotonic agents on myocardial contractility in conscious dog administered orally at dose of 1.0 mg/kg; assay type: functional, Canis lupus familiaris, Myocardium; conditions: route oral
Canis familiaris [14] = experiment: Percent increase in heart rate was evaluated by effect of Cardiotonic agents on myocardial contractility in conscious dog administered orally at dose of 0.31 mg/kg; Value ranges from(10-15); assay type: functional, Canis lupus familiaris; conditions: route oral
Canis familiaris [15] = experiment: Cardiovascular activity (contractility) (0.31 mg/kg) in dog after beta-blockade; assay type: functional, Canis lupus familiaris
Canis familiaris [16] = experiment: Percent increase in contractility was evaluated by effect of Cardiotonic agents on myocardial contractility in conscious dog administered orally at dose of 0.31 mg/kg; Value ranges from (10-20); assay type: functional, Canis lupus familiaris, Myocardium; conditions: route oral
Canis familiaris [17] = experiment: Cardiovascular activity(blood pressure) (0.31 mg/kg) in dog after beta-blockade; assay type: functional, Canis lupus familiaris
Canis familiaris [18] = experiment: Cardiovascular activity(blood pressure) (0.31 mg/kg) in dog before beta-blockade.; assay type: functional, Canis lupus familiaris
Canis familiaris [19] = experiment: Cardiovascular activity(heart rate) (0.31 mg/kg) in dog after beta-blockade; assay type: functional, Canis lupus familiaris
Canis familiaris [20] = experiment: Percent increase in heart rate was evaluated by effect of Cardiotonic agents on myocardial contractility in conscious dog administered orally at dose of 10 mg/kg; assay type: functional, Canis lupus familiaris; conditions: route oral
Canis familiaris [21] = experiment: Percent increase in contractility was evaluated by effect of Cardiotonic agents on myocardial contractility in conscious dog administered orally at dose of 10 mg/kg; assay type: functional, Canis lupus familiaris, Myocardium; conditions: route oral
Canis familiaris [22] = experiment: Percent increase in heart rate was evaluated by effect of Cardiotonic agents on myocardial contractility in conscious dog administered orally at dose of 3.1 mg/kg; assay type: functional, Canis lupus familiaris; conditions: route oral
Canis familiaris [23] = experiment: Percent increase in contractility was evaluated by effect of Cardiotonic agents on myocardial contractility in conscious dog administered orally at dose of 3.1 mg/kg; assay type: functional, Canis lupus familiaris, Myocardium; conditions: route oral
Canis familiaris [24] = experiment: Cardiovascular activity (heart rate) (0.31 ug/kg) in dog before beta-blockade; assay type: functional, Canis lupus familiaris
Canis familiaris [25] = experiment: Cardiovascular activity (blood pressure) (0.31 ug/kg)in dog after beta-blockade; assay type: functional, Canis lupus familiaris
Canis familiaris [26] = experiment: Cardiovascular activity (contractility) (0.31 ug/kg) in dog before beta-blockade.; assay type: functional, Canis lupus familiaris
Canis familiaris [27] = experiment: Cardiovascular activity (heart rate) (0.31 ug/kg) in dog after beta-blockade.; assay type: functional, Canis lupus familiaris
Canis familiaris [28] = experiment: Cardiovascular activity (contractility) (0.31 ug/kg) in dog after beta-blockade; assay type: functional, Canis lupus familiaris
Canis familiaris [29] = experiment: Cardiovascular activity (blood pressure) (0.31 ug/kg) in dog before beta-blockade; assay type: functional, Canis lupus familiaris

NNC(=O)c1cc(-c2ccc(-n3ccnc3)cc2)nnc1O
Dose (Canis familiaris [1]): 1 mg/kg

O=C1CCC(c2ccc(-n3cccn3)cc2)=NN1
Dose (Canis familiaris [2]): >3.1 mg/kg

Oc1ccc(-c2cccc(-n3ccnc3)c2)nn1
Dose (Canis familiaris [1]): 0.2 mg/kg

Cc1cc(O)nnc1-c1ccc(-n2cnc3c2CCCC3)cc1
Dose (Canis familiaris [1]): >0.1 mg/kg

Cc1cc(-c2ccc(-n3ccnc3)cc2)nnc1O
Dose (Canis familiaris [1]): 0.3 mg/kg

O=C1CCC(c2ccc(-n3cnc(CO)c3)cc2)=NN1
Dose (Canis familiaris [1]): 0.034 mg/kg

Oc1ccc(-c2ccc(-n3ccnc3)cc2)nn1
Dose (Canis familiaris [1]): 0.1 mg/kg

O=c1ccc(-c2ccc(-n3ccnc3)cc2)nn1CCO
Dose (Canis familiaris [1]): >1 mg/kg

O=C1CCC(c2ccc(-n3ccnc3)cc2)=NN1Cc1ccccc1
Dose (Canis familiaris [3]): 10 mg/kg

O=C1CCC(c2ccc(-n3ccnc3S)cc2)=NN1
Dose (Canis familiaris [2]): >10 mg/kg

O=C1NN=C(c2ccc(-n3ccnc3)cc2)C2CCCCC12 (stereo not drawn)
Dose (Canis familiaris [1]): 1 mg/kg

CCC1CC(=O)NN=C1c1ccc(-n2ccnc2)cc1 (stereo not drawn)
Dose (Canis familiaris [1]): 1 mg/kg

O=C1CCC(c2cccc(-n3ccnc3)c2)=NN1
Dose (Canis familiaris [4]): >1 mg/kg

Cc1nccn1-c1ccc(C2=NNC(=O)CC2)cc1
Dose (Canis familiaris [1]): 0.3 mg/kg | Dose (Canis familiaris [5]): 1 mg/kg

O=C1CCC(c2ccc(-n3cnc4ccccc43)cc2)=NN1
Dose (Canis familiaris [1]): 0.1 mg/kg | Dose (Canis familiaris [3]): 3.1 mg/kg

Cc1nccn1-c1ccc(-c2ccc(O)nn2)cc1
Dose (Canis familiaris [1]): 0.1 mg/kg

O=C1CCC(c2ccc(-n3cnc4c3CCCC4)cc2)=NN1
Dose (Canis familiaris [1]): 0.064 mg/kg | Dose (Canis familiaris [3]): >1 mg/kg

CCc1nc(C)cn1-c1ccc(C2=NNC(=O)CC2)cc1
Dose (Canis familiaris [1]): 0.1 mg/kg | Dose (Canis familiaris [3]): <3.1 mg/kg

O=C1CCC(c2ccc(-n3cccc3)cc2)=NN1
Dose (Canis familiaris [3]): 10 mg/kg

O=C1CCC(c2ccc(-n3cnnc3)cc2)=NN1
Dose (Canis familiaris [3]): >3.1 mg/kg

O=C1CCC(c2ccc(-n3cncn3)cc2)=NN1
Dose (Canis familiaris [3]): 1 mg/kg

Cc1cc(O)nnc1-c1ccc(-n2ccnc2)cc1
Dose (Canis familiaris [1]): >1 mg/kg

CN1N=C(c2ccc(-n3ccnc3)cc2)CCC1=O
Dose (Canis familiaris [1]): >1 mg/kg

CSc1nccn1-c1ccc(C2=NNC(=O)CC2)cc1
Dose (Canis familiaris [5]): 10 mg/kg

C[S+]([O-])c1nccn1-c1ccc(C2=NNC(=O)CC2)cc1 (stereo not drawn)
Dose (Canis familiaris [1]): 0.3 mg/kg | Dose (Canis familiaris [3]): 10 mg/kg

CS(=O)(=O)c1nccn1-c1ccc(C2=NNC(=O)CC2)cc1
Dose (Canis familiaris [3]): >1 mg/kg

CC1CC(c2ccc(-n3ccnc3)cc2)=NNC1=O (stereo not drawn)
Dose (Canis familiaris [1]): 1 mg/kg

CCc1nc(C)c(Br)n1-c1ccc(-c2ccc(O)nn2)cc1
Dose (Canis familiaris [1]): 0.2 mg/kg

Cn1nc(-c2ccc(-n3ccnc3)cc2)ccc1=O
Dose (Canis familiaris [1]): >1 mg/kg

O=C(O)c1cc(-c2ccc(-n3ccnc3)cc2)nnc1O
Dose (Canis familiaris [1]): >1 mg/kg

CCc1nc(C)cn1-c1ccc(-c2ccc(O)nn2)cc1
Dose (Canis familiaris [1]): 0.3 mg/kg

Oc1ccc(-c2ccc(-n3cnc4c3CCCC4)cc2)nn1
Dose (Canis familiaris [1]): 0.1 mg/kg

NC(=O)c1cc(-c2ccc(-n3ccnc3)cc2)nnc1O
Dose (Canis familiaris [1]): >1 mg/kg

CC(=O)OCCN1N=C(c2ccc(-n3ccnc3)cc2)CCC1=O
Dose (Canis familiaris [1]): >1 mg/kg

Nc1cc(-c2ccc(-n3ccnc3)cc2)nnc1O
Dose (Canis familiaris [1]): 0.3 mg/kg

CC1CC(O)=NN=C1c1ccc(-n2ccnc2)cc1 (stereo not drawn) [CI-930]
Increase (Canis familiaris [6]): 49% | Increase (Canis familiaris [7]): 70% | Dose (Canis familiaris [1]): 0.013 mg/kg | Increase (Canis familiaris [8]): 34% | Dose (Canis familiaris [2]): 0.1 mg/kg | Increase (Canis familiaris [9]): 42%

CSc1ccc(C(=O)c2[nH]c(=O)[nH]c2C)cc1 [ENOXIMONE]
Dose (Canis familiaris [1]): 0.283 mg/kg

O=C1CCC(c2ccc(-n3ccnc3)cc2)=NN1 [IMAZODAN]
Change (Canis familiaris [10]): 82% | Increase (Canis familiaris [11]): 29% | Dose (Canis familiaris [1]): 0.045 mg/kg | Change (Canis familiaris [12]): 24% | Increase (Canis familiaris [13]): 40% | Increase (Canis familiaris [14]): 10% | Change (Canis familiaris [15]): 62.4% | Increase (Canis familiaris [16]): 10% | Change (Canis familiaris [17]): -2.8% | Change (Canis familiaris [18]): -4.2% | Dose (Canis familiaris [2]): 1 mg/kg | Change (Canis familiaris [19]): 5.4%

Nc1cc(-c2ccncc2)c[nH]c1=O [INAMRINONE]
Increase (Canis familiaris [20]): 18% | Increase (Canis familiaris [21]): 45% | Increase (Canis familiaris [22]): 23% | Increase (Canis familiaris [23]): 6% | Dose (Canis familiaris [1]): 0.389 mg/kg

CC(C)NCC(O)c1ccc(O)c(O)c1 (stereo not drawn) [ISOPROTERENOL]
Change (Canis familiaris [24]): 31% | Change (Canis familiaris [25]): 1% | Change (Canis familiaris [26]): 96% | Change (Canis familiaris [27]): 0.4% | Change (Canis familiaris [28]): 10.4% | Change (Canis familiaris [29]): -6.6%

Cc1[nH]c(=O)c(C#N)cc1-c1ccncc1 [MILRINONE]
Increase (Canis familiaris [11]): 60% | Dose (Canis familiaris [1]): 0.037 mg/kg | Increase (Canis familiaris [13]): 45%

COc1cc([S+](C)[O-])ccc1-c1nc2cccnc2[nH]1 (stereo not drawn) [SULMAZOLE]
Increase (Canis familiaris [20]): 61% | Increase (Canis familiaris [21]): 57% | Dose (Canis familiaris [1]): 0.435 mg/kg

CC1CC(=O)NN=C1c1ccc(-n2cnc3c2CCCC3)cc1 (stereo not drawn) [TETRAHYDROBENXIMIDAZOLE]
Dose (Canis familiaris [1]): 0.02 mg/kg | Dose (Canis familiaris [3]): 0.3 mg/kg
